Assay results published in patent US12398119B2, “Piperazine azaspiro derivatives” (PFIZER INC., priority 2018, dated 2025).
Where two headings read alike, the source gives them in different places.

Target: T1, Human M4 mAChR (Homo sapiens, UniProt P08173)
T1 construct: host or cells: HEK293 (Sor-L9 HEK293 human/M4/GloSensor Cell Clone Number 40)
T1 sequence (P08173 1-479): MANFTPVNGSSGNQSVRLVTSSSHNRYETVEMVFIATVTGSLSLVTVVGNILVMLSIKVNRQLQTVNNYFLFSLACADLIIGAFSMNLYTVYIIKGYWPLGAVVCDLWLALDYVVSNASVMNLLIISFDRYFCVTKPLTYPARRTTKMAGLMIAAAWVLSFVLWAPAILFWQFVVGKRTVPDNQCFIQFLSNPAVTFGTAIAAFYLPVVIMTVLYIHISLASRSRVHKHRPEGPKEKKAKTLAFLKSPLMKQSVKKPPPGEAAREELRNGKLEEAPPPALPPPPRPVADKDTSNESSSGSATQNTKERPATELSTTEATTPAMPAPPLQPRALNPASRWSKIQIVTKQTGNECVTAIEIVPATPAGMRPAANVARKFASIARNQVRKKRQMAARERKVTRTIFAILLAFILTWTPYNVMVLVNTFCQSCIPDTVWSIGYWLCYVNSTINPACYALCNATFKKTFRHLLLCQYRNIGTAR
Test: Muscarinic hM4 Agonist GloSensor cAMP Assay
Type: cell-based
Procedure: Muscarinic hM4 Agonist GloSensor cAMP Assay Methods
Compounds were prepared in advance of the assay. Test compounds were solubilized in 100% dimethyl sulfoxide (DMSO, Sigma D8418) to a concentration of 30 mM. A 10-point intermediate dilution series using half log dilutions was created in 100% DMSO with a top concentration of 4 mM. The serially diluted compounds were spotted as 200 nL/well in a 384-well plate (Matrix Catalog Number 4325). The final compound concentration range in the assay was […] to 0.3 nM with a final DMSO concentration of 0.25%.
Human M4 mAChR expressing stable cell lines were generated using a parental HEK cell expressing the GloSensor construct (Promega Sor-L9 HEK293 human/M4/GloSensor Cell Clone Number 40). The cells were grown in 90% Dulbecco's Modified Eagle Medium (DMEM, Gibco 11960), 10% fetal bovine serum (FBS, Hyclone CH.30160-03), 1% Penicillin/Streptomycin (Gibco 15070-063), 500 µg/mL Geneticin (Gibco 10131-027), 200 µg/mL Hygromycin B (Invitrogen 10687-010) and 1% Glutamax (Thermo Fisher 35050061).
One day prior to assay, the cells were lifted using dissociation buffer (Gibco 13151-014) and spun in a centrifuge at 250 times gravity for 5 minutes at room temperature. Supernatant was removed and the cell pellet was resuspended in growth media to a concentration of […]. Cells were then added to white poly-d-lysine coated plates (Becton Dickinson 356661) as 40 μL per well (25,000 cells) and incubated overnight (20-24 hours) in a 37° C. humidified incubator with 5% carbon dioxide (C02).
The following day, culture media was removed from the cell plates and replaced with […] equilibration medium containing 88% CO2-independent medium (Invitrogen 18045088), 10% FBS and 2% GloSensor cAMP reagent (Promega E1291) that had been warmed to 37° C. Plates were then covered and incubated for 2 hours at room temperature while protected from light.
To the previously prepared serially diluted compound plates, 200 nL of 4 mM ACh (Sigma A2661, 10 μM final) or 200 nL of 100% DMSO (0.25% final) was added to the positive and negative control wells, respectively. Compound plates were then diluted by adding 16 μL of C02-independent media containing 10% FBS and an EC80 concentration of isoproterenol (Sigma 16504). Prior to compound testing, concentration response curves were run for isoproterenol to determine the EC80 concentration. At the end of the 2 hour equilibration, 10 µL was transferred from the compound plates to the cell plates. The cell plates were incubated an additional 7 minutes at room temperature and then read using a Multi-label EnVision plate reader (Perkin Elmer) for luminescence.
The raw data, expressed as relative light units, was analyzed using Activity Base (IDBS). The percent effect at each compound concentration was calculated based on and relative to the amount of cAMP produced by the positive and negative control wells contained on each assay plate. The positive control wells contained an EC100 concentration of ACh and the negative control wells contained only DMSO. The concentration and % effect values were fit using a four-parameter logistic dose response equation, and the concentration required for 50% effect (EC50) was determined as well as the maximum asymptote of the concentration response curve to define the efficacy.

[1] = Emax: maximum asymptote of concentration response curve, relative to ACh positive control (EC100) and DMSO, geometric mean, read-out: % maximum effect
[2] = HEK293 human/M4/GloSensor cells, EC80 isoproterenol, geometric mean, number of determinations in parentheses, read-out: EC50
[3] = enantiomers reported in footnotes to Table 1, number of determinations in parentheses, read-out: M4 EC50
[4] = enantiomers reported in footnotes to Table 1, number of determinations in parentheses, read-out: M4 Emax

Structure (SMILES) | Emax [1] [%] | EC50 [2] [nM] | EC50 [3] [nM] | Emax [4] [%]
CCOC(=O)N1CC2(CCC(N3CCN(c4ncccc4-c4cncc(OC(F)F)c4)CC3)C2)C1 (stereo not shown) [Example 37, ethyl 6-{4-[5′-(difluoromethoxy)-3,3′-bipyridin-2-yl]piperazin-1-yl}-2-azaspiro[3.4]octane-2-carboxylate] | 24.7 | 6.1 | – | –
CCOC(=O)N1CC2(CCC(N3CCN(c4cccnc4OCC(F)(F)F)CC3)C2)C1 (stereo not shown) [Example 10, ethyl 6-{4-[2-(2,2,2-trifluoroethoxy)pyridin-3-yl]piperazin-1-yl}-2-azaspiro[3.4]octane-2-carboxylate] | 91.5 | 5.13 | – | –
CCOC(=O)N1CC2(CCC(N3CCN(c4ncccc4-c4cnc(OC)cn4)CC3)C2)C1 (single isomer, unassigned) [Example 2, ethyl 6-{4-[3-(5-methoxypyrazin-2-yl)pyridin-2-yl]piperazin-1-yl}-2-azaspiro[3.4]octane-2-carboxylate] | – | > 10000 | – | –
CCOC(=O)N1CCC2(CC(N3CCN(c4ncccc4OC)CC3)C2)C1 (stereo not shown) [Example 12, ethyl 2-[4-(3-methoxypyridin-2-yl)piperazin-1-yl]-6-azaspiro[3.4]octane-6-carboxylate] | 95.2 | 23.3 | – | –
CCOC(=O)N1CC2(CCC(N3CCN(c4ncccc4C4CC4)CC3)C2)C1 (single isomer, unassigned) [enantiomer of Example 22, ethyl 6-[4-(3-cyclopropylpyridin-2-yl)piperazin-1-yl]-2-azaspiro[3.4]octane-2-carboxylate] | – | – | 11.6 | 103
CCOC(=O)N1CCC2(CC(N3CCN(c4ncccc4-c4cscn4)CC3)C2)C1 (stereo not shown) [Example 16, ethyl 2-{4-[3-(1,3-thiazol-4-yl)pyridin-2-yl]piperazin-1-yl}-6-azaspiro[3.4]octane-6-carboxylate] | 104 | 24.5 | – | –
CCOC(=O)N1CC2(CCC(N3CCN(c4nccnc4OC)CC3)C2)C1 (single isomer, unassigned) [Example 27, ethyl 6-[4-(3-methoxypyrazin-2-yl)piperazin-1-yl]-2-azaspiro[3.4]octane-2-carboxylate] | 25.1 | 11.4 | – | –
CCOC(=O)N1CC2(CCC(N3CCN(c4ncccc4-c4ccc5nncn5c4)CC3)C2)C1 (stereo not shown) [Example 40, ethyl 6-{4-[3-([1,2,4]triazolo[4,3-a]pyridin-6-yl)pyridin-2-yl]piperazin-1-yl}-2-azaspiro[3.4]octane-2-carboxylate] | 81.6 | 12 | – | –
CCOC(=O)N1CC2(CCC(N3CCN(c4cccnc4OC4COC4)CC3)C2)C1 (stereo not shown) [Example 25, ethyl 6-{4-[2-(oxetan-3-yloxy)pyridin-3-yl]piperazin-1-yl}-2-azaspiro[3.4]octane-2-carboxylate] | 83.1 | 5.37 | – | –
CCOC(=O)N1CC2(CCC(N3CCN(c4ncccc4N4CC(C#N)C4)CC3)C2)C1 (stereo not shown) [Example 30, ethyl 6-{4-[3-(3-cyanoazetidin-1-yl)pyridin-2-yl]piperazin-1-yl}-2-azaspiro[3.4]octane-2-carboxylate] | 70.3 | 2.28 | – | –
CCOC(=O)N1CC2(CCC(N3CCN(c4ncccc4C)CC3)C2)C1 (single isomer, unassigned) [enantiomer of Example 21, ethyl 6-[4-(3-methylpyridin-2-yl)piperazin-1-yl]-2-azaspiro[3.4]octane-2-carboxylate] | – | – | > 241 | 76.2
CCOC(=O)N1CC2(CCC(N3CCN(c4ncccc4-c4cncnc4)CC3)C2)C1 (stereo not shown) [Example 14, ethyl 6-{4-[3-(pyrimidin-5-yl)pyridin-2-yl]piperazin-1-yl}-2-azaspiro[3.4]octane-2-carboxylate] | 93.7 | 1.2 | – | –
CCOC(=O)N1CC2(CC[C@@H](N3CCN(c4nccnc4N4CCC(OC)CC4)CC3)C2)C1 [Example 43, ethyl (6R)-6-{4-[3-(4-methoxypiperidin-1-yl)pyrazin-2-yl]piperazin-1-yl}-2-azaspiro[3.4]octane-2-carboxylate] | 55.5 | 1.51 | – | –
CCOC(=O)N1CC2(CCC(N3CCN(c4ncccc4N4CCC(c5ccnn5C)CC4)CC3)C2)C1 (stereo not shown) [Example 28, ethyl 6-(4-{3-[4-(1-methyl-1H-pyrazol-5-yl)pipendin-1-yl]pyridin-2-yl}piperazin-1-yl)-2-azaspiro[3.4]octane-2-carboxylate] | 60 | 1.78 | – | –
CCOC(=O)N1CCC2(CC(N3CCN(c4ncccc4-c4ccc(C#N)cn4)CC3)C2)C1 (single isomer, unassigned) [Example 23, ethyl 2-[4-(5-cyano-2,3′-bipyridin-2′-yl)piperazin-1-yl]-6-azaspiro[3.4]octane-6-carboxylate] | 85 | 143 | – | –
CCOC(=O)N1CC2(CCC(N3CCN(c4ncccc4-c4cnc(OC)cn4)CC3)C2)C1 (stereo not shown) [Example 1, ethyl 6-{4-[3-(5-methoxypyrazin-2-yl)pyridin-2-yl]piperazin-1-yl}-2-azaspiro[3.4]octane-2-carboxylate] | 82.7 | 4.59 | – | –
CCOC(=O)N1CC2(CC(N3CCN(c4ncccc4-c4cnccn4)CC3)C2)C1 [Example 35, ethyl 6-{4-[3-(pyrazin-2-yl)pyridin-2-yl]piperazin-1-yl}-2-azaspiro[3.3]heptane-2-carboxylate] | 94.2 | 304 | – | –
CCOC(=O)N1CC2(CCC(N3CCN(c4ncccc4-c4cnc(O)cn4)CC3)C2)C1 (stereo not shown) [Example 48, ethyl 6-{4-[3-(5-hydroxypyrazin-2-yl)pyridin-2-yl]piperazin-1-yl}-2-azaspiro[3.4]octane-2-carboxylate] | 83.9 | 8.49 | – | –
CCOC(=O)N1CC2(CC[C@@H](N3CCN(c4ncccc4-c4cscn4)CC3)C2)C1 [Example 4, ethyl (6R)-6-{4-[3-(1,3-thiazol-4-yl)pyridin-2-yl]piperazin-1-yl}-2-azaspiro[3.4]octane-2-carboxylate] | 87.2 | 2.17 | – | –
CCOC(=O)N1CC2(CC[C@@H](N3CCN(c4nccnc4-c4cncs4)CC3)C2)C1 [Example 11, ethyl (6R)-6-{4-[3-(1,3-thiazol-5-yl)pyrazin-2-yl]piperazin-1-yl}-2-azaspiro[3.4]octane-2-carboxylate] | 66.4 | 0.806 | – | –
CCOC(=O)N1CC2(CCC(N3CCN(c4ncccc4-c4cnc(C#N)cn4)CC3)C2)C1 (single isomer, unassigned) [enantiomer of Example 41, ethyl 6-{4-[3-(5-cyanopyrazin-2-yl)pyridin-2-yl]piperazin-1-yl}-2-azaspiro[3.4]octane-2-carboxylate] | – | – | 268 | 52.7
CCOC(=O)N1CC2(CCC(N3CCN(c4ncccc4-c4ccnnc4)CC3)C2)C1 (stereo not shown) [Example 17, ethyl 6-{4-[3-(pyridazin-4-yl)pyridin-2-yl]piperazin-1-yl}-2-azaspiro[3.4]octane-2-carboxylate] | 92.3 | 4.41 | – | –
